In one test the test system is monoamine oxidase (MAO). The following applies: cited from earlier work.
For test [1] the following is noted: in vivo; cited from earlier work.
The test system of another test is anticholinergic binding. The following applies: different animal models; cited from earlier work.
Test [2] in a line: treatment of pain in patients who do not respond to alpha-2-delta ligands such as gabapentin (PHN study). The following applies: human, in vivo. The method, then:
The following study is carried out to assess the efficacy of (S,S)-reboxetine in the treatment of patients with post-herpetic neuralgia (PHN) who fail to respond to gabapentin (GBP) treatment.
Study Population Male or female patients aged 18 years or older, with pain present more than 3 months after healing of the Herpes Zoster skin rash and who are also GBP treatment failures. No upper limit on the duration of PHN is imposed. GBP failures are defined as either: […]
Those patients who show no or minimal improvement on the Patient Global Impression of Change (PGIC) after treatment with GBP (1800 mg/day) administered for a period of […]
Those who are unable to tolerate doses of GBP less than or equal to 1800 mg/day.
Study Design Randomized, double-blind, placebo-controlled, 2-treatment (placebo and active), age-stratified study in patients aged 18 years or older, who suffer from PHN. The study is comprised of 3 phases: (i) 7-weeks screening including 4-weeks GBP treatment, (ii) 5-weeks randomized treatment, and (iii) 1-week follow-up period.
All patients who meet entry criteria initially enter a 1-week run-in period during which a daily pain diary will be maintained. Thereafter, if the severity of pain meets relevant criteria for inclusion in the study, patients enter a 4-week period during which they will receive GBP treatment. […]

For a further test, the target named is dopamine reuptake (Homo sapiens, UniProt Q01959). The following applies: cited from earlier work.
dopamine reuptake, sequence (Q01959 whole entry): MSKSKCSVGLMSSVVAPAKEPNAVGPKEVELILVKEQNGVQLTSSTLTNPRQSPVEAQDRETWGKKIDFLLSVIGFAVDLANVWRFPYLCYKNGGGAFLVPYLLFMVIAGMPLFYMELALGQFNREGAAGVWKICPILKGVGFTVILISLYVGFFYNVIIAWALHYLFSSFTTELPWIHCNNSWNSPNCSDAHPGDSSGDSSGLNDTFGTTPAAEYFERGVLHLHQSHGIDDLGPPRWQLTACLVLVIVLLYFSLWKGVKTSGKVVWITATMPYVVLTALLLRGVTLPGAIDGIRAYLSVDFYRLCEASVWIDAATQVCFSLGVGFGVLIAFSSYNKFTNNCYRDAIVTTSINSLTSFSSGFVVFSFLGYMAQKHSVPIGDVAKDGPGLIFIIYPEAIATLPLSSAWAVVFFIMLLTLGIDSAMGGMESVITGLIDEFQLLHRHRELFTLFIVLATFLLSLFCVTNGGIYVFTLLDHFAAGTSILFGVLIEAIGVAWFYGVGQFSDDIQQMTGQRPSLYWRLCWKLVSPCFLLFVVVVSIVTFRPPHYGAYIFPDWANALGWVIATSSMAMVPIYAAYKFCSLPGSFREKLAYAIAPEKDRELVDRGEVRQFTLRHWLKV
The conditions of test [3]: in vivo; cited from earlier work. The source holds these as a separate data set.
For test [4] the following is noted: patients receiving gabapentin; cited from earlier work.
In the next test the target is norepinephrine reuptake (Homo sapiens, UniProt P23975). The following applies: cited from earlier work.
norepinephrine reuptake, sequence (P23975 whole entry): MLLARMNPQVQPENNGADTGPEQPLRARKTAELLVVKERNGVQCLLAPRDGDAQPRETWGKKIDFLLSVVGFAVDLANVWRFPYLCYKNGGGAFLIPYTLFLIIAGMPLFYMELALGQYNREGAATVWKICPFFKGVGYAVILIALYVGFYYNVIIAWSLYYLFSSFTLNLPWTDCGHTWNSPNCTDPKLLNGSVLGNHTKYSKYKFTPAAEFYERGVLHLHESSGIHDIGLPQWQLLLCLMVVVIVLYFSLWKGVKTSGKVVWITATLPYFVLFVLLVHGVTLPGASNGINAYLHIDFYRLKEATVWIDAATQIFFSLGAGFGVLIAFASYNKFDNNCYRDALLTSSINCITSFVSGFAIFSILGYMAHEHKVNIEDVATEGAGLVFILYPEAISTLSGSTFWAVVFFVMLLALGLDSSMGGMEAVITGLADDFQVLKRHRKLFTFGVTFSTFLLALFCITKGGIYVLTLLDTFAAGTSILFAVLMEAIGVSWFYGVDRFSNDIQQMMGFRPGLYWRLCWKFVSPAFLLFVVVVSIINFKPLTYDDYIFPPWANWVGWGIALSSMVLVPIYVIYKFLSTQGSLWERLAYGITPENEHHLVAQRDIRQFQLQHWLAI

Molecules are shown by their SMILES.

Regarding `CCOc1ccccc1OC(c1ccccc1)C1CNCCO1` (racemic) [reboxetine, (RR, SS)-2-[α-(2-ethoxyphenoxy)benzyl]morpholine], in the test with monoamine oxidase (MAO), the “monoamine oxidase (MAO) inhibitory activity” value was “substantially devoid”. Also, the “effect in the 8-OH-DPAT hypothermia test” value in test [1] was “ineffective”. Moreover, the anticholinergic binding activity result in the test with anticholinergic binding was “no anticholinergic binding activity”.

For the molecule `CCOc1ccccc1O[C@@H](c1ccccc1)[C@@H]1CNCCO1` [(S,S)-reboxetine], the “efficacy in treating pain in patients who do not respond to alpha-2-delta ligands” value in test [2] is on record as “efficacious”. For the same molecule, the “dopamine reuptake inhibitory activity” value at dopamine reuptake was “no”.

With `NCC1(CC(=O)O)CCCCC1` [gabapentin, 1-(aminomethyl)-cyclohexylacetic acid], the “efficacy in the treatment of painful diabetic neuropathy” value in test [3] is listed as “efficacious”. The “patients noting at least a moderate improvement (score of 1 or 2) on the Patient Global Impression of Change” value in test [4] is given as “Approximately 60%”.

With `COc1ccc(C(CN(C)C)C2(O)CCCCC2)cc1` (stereo not drawn) [venlafaxine], the “norepinephrine reuptake inhibitory activity” value on norepinephrine reuptake was “potent inhibitor”. The “dopamine reuptake inhibitory activity” value at dopamine reuptake was “weak inhibitor”.
